# Results as given in publication PMC8550792, “Evolution of kinase polypharmacology across HSP90 drug discovery” (Cell Chemical Biology, 2021).
# How the values were obtained:
# Experiment in all cases: biochemical
# Assay type in all cases: biochemical
# 382 unique human kinases [1] = biological target: T1, 382 unique human kinases (Homo sapiens, UniProt Q12851); details: GCK/MAP4K2, 10 uM; for remaining activity at 10 µM: read-out: % Enzyme Activity (relative to DMSO controls)
# T1 construct: purchased Reaction Biology (HotSpot contract assay)
# T1 sequence (Q12851 1-820): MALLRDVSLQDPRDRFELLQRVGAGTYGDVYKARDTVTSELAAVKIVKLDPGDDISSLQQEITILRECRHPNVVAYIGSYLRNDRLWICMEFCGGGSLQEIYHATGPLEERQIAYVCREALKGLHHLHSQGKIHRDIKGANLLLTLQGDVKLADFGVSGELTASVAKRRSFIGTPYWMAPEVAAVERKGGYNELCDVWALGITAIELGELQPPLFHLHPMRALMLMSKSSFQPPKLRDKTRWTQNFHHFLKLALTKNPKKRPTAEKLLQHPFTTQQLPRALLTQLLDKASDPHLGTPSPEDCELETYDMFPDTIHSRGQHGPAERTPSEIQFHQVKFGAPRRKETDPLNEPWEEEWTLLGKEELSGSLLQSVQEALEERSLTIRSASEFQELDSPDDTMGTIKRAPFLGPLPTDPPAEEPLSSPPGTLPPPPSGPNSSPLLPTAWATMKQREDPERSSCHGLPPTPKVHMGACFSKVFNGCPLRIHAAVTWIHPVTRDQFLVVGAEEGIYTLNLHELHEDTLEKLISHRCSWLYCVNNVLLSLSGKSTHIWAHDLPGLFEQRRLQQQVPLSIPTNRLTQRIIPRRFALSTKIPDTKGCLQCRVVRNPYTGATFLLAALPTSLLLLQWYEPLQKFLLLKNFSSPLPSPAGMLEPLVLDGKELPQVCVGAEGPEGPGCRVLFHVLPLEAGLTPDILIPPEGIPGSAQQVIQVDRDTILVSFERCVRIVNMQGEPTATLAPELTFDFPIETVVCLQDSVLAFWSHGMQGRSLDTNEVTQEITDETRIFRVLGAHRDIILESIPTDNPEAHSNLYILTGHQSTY
# 382 unique human kinases [2] = biological target: T2, 382 unique human kinases (Homo sapiens, UniProt Q06187, P190K); details: BTK (P190K), 10 uM; for remaining activity at 10 µM: read-out: % Enzyme Activity (relative to DMSO controls)
# T2 construct: purchased Reaction Biology (HotSpot contract assay)
# 382 unique human kinases [3] = biological target: T3, 382 unique human kinases (Homo sapiens, UniProt P08922, G2032R); details: ROS1 (G2032R), 10 uM; for remaining activity at 10 µM: read-out: % Enzyme Activity (relative to DMSO controls)
# T3 construct: purchased Reaction Biology (HotSpot contract assay)
# 382 unique human kinases [4] = biological target: T4, 382 unique human kinases (Homo sapiens, UniProt P43403); details: ZAP70, compound at 10 uM, duplicate values; for remaining activity at 10 µM: read-out: % Enzyme Activity (relative to DMSO controls)
# T4 construct: purchased Reaction Biology (HotSpot contract assay)
# T4 sequence (P43403 1-619): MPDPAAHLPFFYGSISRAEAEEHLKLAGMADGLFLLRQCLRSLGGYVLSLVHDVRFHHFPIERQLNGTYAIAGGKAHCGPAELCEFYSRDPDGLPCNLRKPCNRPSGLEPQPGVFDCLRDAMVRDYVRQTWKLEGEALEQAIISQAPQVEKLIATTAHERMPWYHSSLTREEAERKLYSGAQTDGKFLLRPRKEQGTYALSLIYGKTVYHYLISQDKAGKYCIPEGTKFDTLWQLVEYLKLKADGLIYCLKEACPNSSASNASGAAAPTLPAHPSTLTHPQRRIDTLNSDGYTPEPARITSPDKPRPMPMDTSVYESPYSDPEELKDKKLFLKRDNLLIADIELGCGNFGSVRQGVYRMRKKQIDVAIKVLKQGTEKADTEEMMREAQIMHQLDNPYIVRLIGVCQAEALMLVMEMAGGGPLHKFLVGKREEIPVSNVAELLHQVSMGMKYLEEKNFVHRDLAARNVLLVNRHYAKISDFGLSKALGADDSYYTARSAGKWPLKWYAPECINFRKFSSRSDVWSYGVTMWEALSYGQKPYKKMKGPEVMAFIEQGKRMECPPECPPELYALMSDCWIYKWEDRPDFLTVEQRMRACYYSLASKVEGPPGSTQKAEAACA
# 382 unique human kinases [5] = biological target: T5, 382 unique human kinases (Homo sapiens, UniProt Q9Y572); details: RIPK3, [ATP] 2.5 µM, compound 10 uM; for remaining activity at 10 µM: read-out: % Enzyme Activity (relative to DMSO controls)
# T5 construct: purchased Reaction Biology (HotSpot contract assay)
# 382 unique human kinases [6] = biological target: T6, 382 unique human kinases (Homo sapiens, UniProt P49761); details: CLK3, [ATP] 30 µM, compound 10 uM; for remaining activity at 10 µM: read-out: % Enzyme Activity (relative to DMSO controls)
# T6 construct: purchased Reaction Biology (HotSpot contract assay)
# 382 unique human kinases [7] = biological target: T7, 382 unique human kinases (Homo sapiens, UniProt P27448); details: MARK3, 10 uM; for remaining activity at 10 µM: read-out: % Enzyme Activity (relative to DMSO controls)
# T7 construct: purchased Reaction Biology (HotSpot contract assay)
# 382 unique human kinases [8] = biological target: T8, 382 unique human kinases (Homo sapiens, UniProt P21802, V564F); details: FGFR2 (V564F), [ATP] 30 µM, compound 10 uM; for remaining activity at 10 µM: read-out: % Enzyme Activity (relative to DMSO controls)
# T8 construct: purchased Reaction Biology (HotSpot contract assay)
# 382 unique human kinases [9] = biological target: T9, 382 unique human kinases (Homo sapiens, UniProt P22455, N535K); details: FGFR4 (N535K), 10 uM; for remaining activity at 10 µM: read-out: % Enzyme Activity (relative to DMSO controls)
# T9 construct: purchased Reaction Biology (HotSpot contract assay)
# 382 unique human kinases [10] = biological target: T10, 382 unique human kinases (Homo sapiens, UniProt P10721, D816V); details: c-Kit (D816V), [ATP] 10 µM, compound 10 uM; for remaining activity at 10 µM: read-out: % Enzyme Activity (relative to DMSO controls)
# T10 construct: purchased Reaction Biology (HotSpot contract assay)
# T10 sequence (P10721 26-976 D816V): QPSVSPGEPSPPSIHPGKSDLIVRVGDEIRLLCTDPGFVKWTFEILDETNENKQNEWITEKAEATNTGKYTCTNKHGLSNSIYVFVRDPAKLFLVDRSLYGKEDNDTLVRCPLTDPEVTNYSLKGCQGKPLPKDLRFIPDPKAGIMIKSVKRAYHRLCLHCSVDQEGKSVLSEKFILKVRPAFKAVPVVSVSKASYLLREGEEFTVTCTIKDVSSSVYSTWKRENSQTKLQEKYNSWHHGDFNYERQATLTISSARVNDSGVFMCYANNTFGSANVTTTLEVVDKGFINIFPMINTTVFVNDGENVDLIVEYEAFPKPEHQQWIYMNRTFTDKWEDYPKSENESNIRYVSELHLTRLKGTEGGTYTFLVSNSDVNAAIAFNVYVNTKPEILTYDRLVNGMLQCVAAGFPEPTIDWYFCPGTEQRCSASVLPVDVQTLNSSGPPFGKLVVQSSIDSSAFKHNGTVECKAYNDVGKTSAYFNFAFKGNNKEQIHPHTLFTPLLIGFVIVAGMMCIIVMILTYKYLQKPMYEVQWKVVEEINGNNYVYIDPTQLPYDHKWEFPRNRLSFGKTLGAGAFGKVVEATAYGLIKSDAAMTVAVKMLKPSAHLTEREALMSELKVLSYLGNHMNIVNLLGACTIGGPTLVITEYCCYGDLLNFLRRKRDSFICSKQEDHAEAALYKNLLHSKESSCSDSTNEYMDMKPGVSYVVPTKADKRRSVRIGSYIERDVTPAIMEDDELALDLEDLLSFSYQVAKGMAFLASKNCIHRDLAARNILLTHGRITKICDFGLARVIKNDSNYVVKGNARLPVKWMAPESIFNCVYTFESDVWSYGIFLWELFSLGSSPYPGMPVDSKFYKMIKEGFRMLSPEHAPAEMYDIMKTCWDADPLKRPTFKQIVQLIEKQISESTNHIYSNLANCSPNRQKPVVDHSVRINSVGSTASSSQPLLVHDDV
# T5 sequence (Q9Y572 whole entry): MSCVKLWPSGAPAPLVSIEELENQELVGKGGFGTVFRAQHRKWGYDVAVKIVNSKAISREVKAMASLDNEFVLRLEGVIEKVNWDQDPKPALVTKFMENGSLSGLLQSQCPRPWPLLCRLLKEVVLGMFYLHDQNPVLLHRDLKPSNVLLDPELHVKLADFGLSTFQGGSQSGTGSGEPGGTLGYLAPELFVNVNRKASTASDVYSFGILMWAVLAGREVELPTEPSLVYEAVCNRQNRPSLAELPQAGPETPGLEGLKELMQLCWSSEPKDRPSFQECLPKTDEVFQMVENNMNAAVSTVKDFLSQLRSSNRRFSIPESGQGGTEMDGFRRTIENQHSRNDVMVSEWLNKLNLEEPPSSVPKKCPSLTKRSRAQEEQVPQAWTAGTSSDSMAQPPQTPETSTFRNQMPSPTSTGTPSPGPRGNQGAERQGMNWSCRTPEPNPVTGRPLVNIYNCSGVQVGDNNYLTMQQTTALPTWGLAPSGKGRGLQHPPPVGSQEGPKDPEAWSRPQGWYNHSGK
# T3 sequence (P08922 28-2347 G2032R): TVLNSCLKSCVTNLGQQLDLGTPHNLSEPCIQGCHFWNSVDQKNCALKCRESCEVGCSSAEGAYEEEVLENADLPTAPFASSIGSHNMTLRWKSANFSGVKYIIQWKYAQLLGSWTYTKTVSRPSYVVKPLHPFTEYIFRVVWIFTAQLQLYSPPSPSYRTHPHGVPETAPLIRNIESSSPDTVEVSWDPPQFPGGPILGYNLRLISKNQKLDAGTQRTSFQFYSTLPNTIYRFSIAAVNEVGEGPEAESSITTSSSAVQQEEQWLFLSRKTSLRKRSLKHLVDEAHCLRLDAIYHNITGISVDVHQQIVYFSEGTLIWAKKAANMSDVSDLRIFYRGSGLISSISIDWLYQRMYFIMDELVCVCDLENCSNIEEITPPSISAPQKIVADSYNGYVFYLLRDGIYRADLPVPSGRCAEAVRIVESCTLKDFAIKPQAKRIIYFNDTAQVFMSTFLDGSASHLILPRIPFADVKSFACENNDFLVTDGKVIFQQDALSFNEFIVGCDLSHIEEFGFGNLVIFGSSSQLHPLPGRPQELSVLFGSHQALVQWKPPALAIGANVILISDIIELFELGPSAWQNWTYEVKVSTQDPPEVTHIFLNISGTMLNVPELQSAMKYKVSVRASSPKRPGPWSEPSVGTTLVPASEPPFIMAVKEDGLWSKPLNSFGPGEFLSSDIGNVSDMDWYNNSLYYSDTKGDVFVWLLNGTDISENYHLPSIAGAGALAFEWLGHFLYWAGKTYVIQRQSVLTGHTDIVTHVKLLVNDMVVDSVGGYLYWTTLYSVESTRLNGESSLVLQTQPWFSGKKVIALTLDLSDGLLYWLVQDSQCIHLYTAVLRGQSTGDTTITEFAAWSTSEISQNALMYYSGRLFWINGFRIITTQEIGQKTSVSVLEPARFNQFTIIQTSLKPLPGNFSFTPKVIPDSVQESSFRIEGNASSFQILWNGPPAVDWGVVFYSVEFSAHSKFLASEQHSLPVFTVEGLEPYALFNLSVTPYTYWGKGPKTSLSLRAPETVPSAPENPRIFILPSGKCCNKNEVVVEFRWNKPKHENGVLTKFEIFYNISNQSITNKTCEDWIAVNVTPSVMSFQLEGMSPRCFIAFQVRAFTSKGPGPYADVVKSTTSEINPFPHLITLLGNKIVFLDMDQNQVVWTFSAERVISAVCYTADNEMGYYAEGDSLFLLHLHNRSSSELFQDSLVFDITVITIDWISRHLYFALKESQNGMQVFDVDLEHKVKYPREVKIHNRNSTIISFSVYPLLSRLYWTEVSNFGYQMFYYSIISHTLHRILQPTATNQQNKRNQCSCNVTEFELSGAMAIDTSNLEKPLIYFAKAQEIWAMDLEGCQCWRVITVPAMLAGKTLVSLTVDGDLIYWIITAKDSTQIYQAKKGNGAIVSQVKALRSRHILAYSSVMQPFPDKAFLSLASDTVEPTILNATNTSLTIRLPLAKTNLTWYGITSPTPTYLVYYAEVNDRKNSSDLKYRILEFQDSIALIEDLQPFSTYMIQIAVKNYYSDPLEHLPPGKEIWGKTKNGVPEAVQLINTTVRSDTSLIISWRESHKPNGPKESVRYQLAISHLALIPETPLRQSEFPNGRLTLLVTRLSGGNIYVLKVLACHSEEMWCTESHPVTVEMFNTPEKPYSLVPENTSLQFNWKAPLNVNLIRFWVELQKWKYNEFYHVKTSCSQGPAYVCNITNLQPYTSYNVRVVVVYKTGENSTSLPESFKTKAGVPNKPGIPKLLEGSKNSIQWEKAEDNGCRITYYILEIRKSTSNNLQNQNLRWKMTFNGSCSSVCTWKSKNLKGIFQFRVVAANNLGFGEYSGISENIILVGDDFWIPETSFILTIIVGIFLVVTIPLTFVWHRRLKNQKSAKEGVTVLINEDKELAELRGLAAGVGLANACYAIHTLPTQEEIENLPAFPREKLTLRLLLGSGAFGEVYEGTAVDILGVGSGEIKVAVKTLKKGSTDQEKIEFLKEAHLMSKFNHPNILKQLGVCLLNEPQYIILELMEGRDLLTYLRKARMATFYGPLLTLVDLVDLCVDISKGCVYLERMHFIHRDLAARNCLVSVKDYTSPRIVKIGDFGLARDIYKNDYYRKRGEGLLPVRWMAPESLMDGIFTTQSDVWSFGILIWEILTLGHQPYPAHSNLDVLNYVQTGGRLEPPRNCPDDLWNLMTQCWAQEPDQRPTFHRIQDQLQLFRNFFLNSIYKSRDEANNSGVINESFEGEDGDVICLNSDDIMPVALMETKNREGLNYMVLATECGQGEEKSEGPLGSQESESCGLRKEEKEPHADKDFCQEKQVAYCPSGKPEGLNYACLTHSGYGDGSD
# T9 sequence (P22455 22-802 N535K): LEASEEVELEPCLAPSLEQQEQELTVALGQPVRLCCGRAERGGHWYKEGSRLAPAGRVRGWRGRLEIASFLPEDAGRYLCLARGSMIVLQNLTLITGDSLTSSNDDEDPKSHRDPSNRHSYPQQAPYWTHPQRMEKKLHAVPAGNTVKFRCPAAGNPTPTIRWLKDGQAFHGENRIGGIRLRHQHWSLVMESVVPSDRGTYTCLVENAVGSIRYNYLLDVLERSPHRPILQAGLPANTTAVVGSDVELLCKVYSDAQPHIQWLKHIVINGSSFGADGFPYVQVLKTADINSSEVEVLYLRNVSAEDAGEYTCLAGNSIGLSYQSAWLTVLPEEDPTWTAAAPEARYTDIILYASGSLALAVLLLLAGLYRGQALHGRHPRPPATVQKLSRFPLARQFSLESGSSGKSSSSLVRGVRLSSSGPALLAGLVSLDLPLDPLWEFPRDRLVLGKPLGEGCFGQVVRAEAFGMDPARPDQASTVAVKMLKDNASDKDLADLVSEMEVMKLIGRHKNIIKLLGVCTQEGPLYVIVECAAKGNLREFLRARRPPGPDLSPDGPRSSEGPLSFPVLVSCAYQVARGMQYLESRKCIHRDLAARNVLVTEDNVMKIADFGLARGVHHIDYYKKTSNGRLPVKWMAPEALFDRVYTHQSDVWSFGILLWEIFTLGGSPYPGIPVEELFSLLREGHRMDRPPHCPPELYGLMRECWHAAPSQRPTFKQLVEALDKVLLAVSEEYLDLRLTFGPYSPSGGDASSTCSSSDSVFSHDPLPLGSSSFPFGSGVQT
# T6 sequence (P49761 whole entry): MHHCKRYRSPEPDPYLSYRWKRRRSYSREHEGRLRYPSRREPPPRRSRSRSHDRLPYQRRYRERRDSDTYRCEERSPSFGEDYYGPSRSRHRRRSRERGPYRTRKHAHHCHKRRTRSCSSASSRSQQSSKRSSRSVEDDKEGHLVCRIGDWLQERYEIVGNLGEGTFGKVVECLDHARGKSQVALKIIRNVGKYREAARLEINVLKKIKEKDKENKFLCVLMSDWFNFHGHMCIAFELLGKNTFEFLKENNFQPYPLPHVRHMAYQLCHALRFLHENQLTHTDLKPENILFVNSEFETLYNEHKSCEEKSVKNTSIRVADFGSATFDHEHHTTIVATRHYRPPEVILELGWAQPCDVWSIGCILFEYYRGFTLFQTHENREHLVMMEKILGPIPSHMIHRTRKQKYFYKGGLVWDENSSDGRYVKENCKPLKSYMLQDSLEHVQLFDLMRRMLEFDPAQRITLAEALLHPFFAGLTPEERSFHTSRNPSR
Structure (SMILES),remaining activity at 10 µM (382 unique human kinases [1]),remaining activity at 10 µM (382 unique human kinases [2]),remaining activity at 10 µM (382 unique human kinases [3]),remaining activity at 10 µM (382 unique human kinases [4]),remaining activity at 10 µM (382 unique human kinases [5]),remaining activity at 10 µM (382 unique human kinases [6]),remaining activity at 10 µM (382 unique human kinases [7]),remaining activity at 10 µM (382 unique human kinases [8]),remaining activity at 10 µM (382 unique human kinases [9]),remaining activity at 10 µM (382 unique human kinases [10]),% Enzyme Activity (relative to DMSO controls) (382 unique human kinases [1]),% Enzyme Activity (relative to DMSO controls) (382 unique human kinases [2]),% Enzyme Activity (relative to DMSO controls) (382 unique human kinases [3]),% Enzyme Activity (relative to DMSO controls) (382 unique human kinases [4]),% Enzyme Activity (relative to DMSO controls) (382 unique human kinases [5]),% Enzyme Activity (relative to DMSO controls) (382 unique human kinases [6]),% Enzyme Activity (relative to DMSO controls) (382 unique human kinases [7]),% Enzyme Activity (relative to DMSO controls) (382 unique human kinases [8]),% Enzyme Activity (relative to DMSO controls) (382 unique human kinases [9]),% Enzyme Activity (relative to DMSO controls) (382 unique human kinases [10])
CC(C)c1cc(-c2n[nH]c(=O)n2-c2ccc3c(ccn3C)c2)c(O)cc1O [Ganetespib (STA9090)],76%,62.1%,66.8%,108%,,,,,,,,,,,,,,,,
CC(C)c1cc(-c2n[nH]c(=O)n2-c2ccc3c(ccn3C)c2)c(O)cc1O [Ganetespib],,,,,59.1%,39%,100%,41.2%,101%,30.4%,,,,,,,,,,
CCNC(=O)c1noc(-c2cc(C(C)C)c(O)cc2O)c1-c1ccc(CN2CCOCC2)cc1 [Luminespib (AUY-922)],97.2%,61.9%,109%,105%,,,,,,,94.14%,61.43%,106.59%,104.43%,,,,,,
CCNC(=O)c1noc(-c2cc(C(C)C)c(O)cc2O)c1-c1ccc(CN2CCOCC2)cc1 [Luminespib],,,,,124%,46.6%,111%,99.4%,101%,68.9%,,,,,115.01%,45.99%,108.05%,98.77%,97.33%,67.99%
